Results on one substance are retold here after patent US20230285568A1, “ENGINEERING DIVERSE ANTIGEN-PRESENTING CELLS TO CONTROL ANTIGEN-SPECIFIC RESPONSES” (University of Maryland, Baltimore, priority 2020, published 2023).

In the assay the test system is OVA-specific CD4+ T (OT-II) cells. Put plainly: BMDC/B cell co-culture with OT-II cells, CFSE dilution and CD25 expression. It is filed as cell-based, mouse. Conditions: BMDCs and B cells, 3-day co-culture. Here is the method:
T cell proliferation studies assays were carried out as described. The assay was carried out in T cell media. BMDCs (2×10^4/well) or B cells (2×10^4/well) were seeded into 96-well round-bottom cell culture plates and incubated with LAg-nano or PAg-nano at various particle concentrations and Ag loadings for 3 hours. Following incubation, all wells were washed to remove excess particles that had not been internalized by cells. Cells were co-cultured with 2×10^4/well of each OTI (CD8) and OTII (CD4) T cells). Groups receiving antigen in lieu of LAg-nano or PAg-nano received soluble OVA323-339 or SIINFEKL (SEQ ID NO:1; 100 ng/mL) at this time. After 3 days of co-culture, the T cells were collected, stained for viability, CD4, and CD8 and analyzed using flow cytometry. The extent of T cell proliferation was analyzed by CFSE dilution using flow cytometry. Ag processing kinetics in B cells was determined by loading with long GP100, KVPRNQDWL (SEQ ID NO:4; short GP100), or lipid-long GP100, […] (lipid-GP100; SEQ ID NO:3). […]
BMDCs and B cells loaded with unmodified ovalbumin (OVA) MHC II-restricted antigen (OVA323-339) or lipo-OVA323-339 were co-cultured with OVA-specific CD4^+ T (OT-II) cells for 3 days. CD25+ expression was detected and the proliferation and division indices were calculated. […] FIGS. 11E through 11H show quantitation of the proliferation and division indices of OT-II T cells. […]

Take “Lipo-OVA323-339: DSPE-PEG2000 lipid conjugated to OVA323-339 (ISQAVHAAHAEINEAGR; SEQ ID NO:2)”: the “APC internalization and MHC II-restricted presentation to OTII CD4+ T cells” value was “enables APC internalization and promotes MHC II-restricted presentation”.
